# Assay results taken from patent US12636368B2, “Ionizable lipids for nucleic acid delivery” (Global Life Sciences Solutions Canada ULC, priority 2019, dated 2026).
# Tests used:
# primary human T cells = test: EPO ELISA after EPO mRNA LNP treatment of primary human T cells; assay type: cell-based
# Description: Reagents were acquired from Quantikine, Minneapolis, MN. The assay was performed as directed on the Quantikine® IVD® ELISA Human Erythropoietin Immunoassay protocol. REF DEP00 Package Insert. Briefly; primary human T cells were isolated from fresh whole blood using a negative selection protocol and activated using a triple activator. Seven days post-activation, T cells were dosed with mRNA LNPs encoding EPO at 2 pg mRNA per 500,000 cells and N/P 10. Quantikine® Human Serum Controls were used. After 48 hours of treatment with mRNA LNPs the T cells were harvested and lysed for cytosolic EPO and media supernatant was sampled for secreted EPO. Table 5 includes the data of FIG. 6 as well as the fold increase of EPO for PNI 76 and 121 versus MC3.
# human T cells = test: eGFP ELISA after eGFP mRNA LNP treatment of human T cells; assay type: cell-based; conditions: FIG. 3; CT10, N/P 10, 10 days post-activation, 48 hours
# Description: Reagents were acquired from Abcam, Cambridge, UK unless otherwise stated. […] The assay was performed as directed by the eGFP SimpleStep ELISA® Kit protocol. Briefly; frozen human T cells, previously isolated from fresh human whole blood using a negative selection protocol, were thawed and activated using a triple activator. […] After 48 hours of treatment with mRNA LNPs the T cells were harvested and lysed for total eGFP content.
# In order to expose the isolated and activated T cells (Day 0) to the formulated mRNA, 2 ug of CleanCap™ eGFP (Trilink Biotechnologies, San Diego, CA) mRNA-containing LNP was added to 500,000 T cells in 1 mL of complete T cell media, with 1 ug/mL of Recombinant Human ApoE4 (“ApoE”) (Peprotech Inc., Montreal, Canada).
# Frozen human T cells, previously isolated from fresh human whole blood using a negative selection protocol, were thawed and activated using a triple activator. At 10 days post-activation, T cells were dosed with CT10 mRNA LNPs LNP comprising DLin-MC3-DMA, PNI 76, PNI 119, PNI 120, PNI 121, and PNI 122 encoding eGFP at 2 pg mRNA per 500,000 cells and N/P 10. Protein expression was measured after 48 hours by eGFP ELISA.
# C57BL/6 mice = test: OVA mRNA LNP intramuscular immunization, anti OVA-IgG ELISA; assay type: in vivo; conditions: i.m., days 1 and 10
# Text: LNP with the composition LM02b were used to encapsulate OVA antigen encoded CleanCap® OVA WT mRNA [TriLink L7610] or CleanCap® OVA 5-moU mRNA [TriLink L7210]. A lipid mixture of Ionizable lipid, DOPE, Cholesterol, and PEG-DMG2000, all in ethanol, was mixed with a low PH buffered solution of OVA mRNA at an N/P ratio of 8 using a NanoAssemblr® Ignite™ microfluidic mixer. The LNP were filtered using the Amicon™ ultra filtration technique and characterized for Size, PDI and Encapsulation Efficiency. Size and PDI were measured using dynamic light scattering techniques, and nucleic acid encapsulation efficiency was calculated from the Quant-iT RiboGreen RNA assay. […]
# All animals were handled according to the Institutional Animal Care and Use Committee ethics protocols. […] Aliquots of serum samples were thawed and analyzed at appropriate dilutions for OVA expression and for IgG measurements using standard ELISA techniques.
# Anti OVA-IgG ELISA of serum samples: Sera from the immunized mice were collected at 2 weeks post second immunization. OVA-specific production of IgG in response to OVA-encoded mRNA in various LNPs were measured by ELISA as described supra. […] After 30 minutes of incubation, a stop solution of 2 N sulphuric acid was added and a plate reader was used to determine absorbance at 450 nm. […]
Structure (SMILES),"EPO expression compared with MC3 (primary human T cells; FIG. 6, N/P 10, 48 hours)",EPO Fold Change Relative to MC3 (primary human T cells; Table 5),"EPO concentration (mIU/mL) (primary human T cells; Table 5, EPO mRNA LNPs, 2 pg mRNA per 500,000 cells, N/P 10, 48 hours)",eGFP expression by eGFP ELISA compared with MC3 (human T cells),immune response to OVA antigen loaded LNPs (C57BL/6 mice)
CCCCC/C=C\C/C=C\CCCCCCCC(=O)O[C@@H]1[C@@H](OC(=O)CCCCCCC/C=C\C/C=C\CCCCC)CO[C@@H]1COC(=O)CCCN(C)C (racemic) [PNI 121],higher than those containing MC3,1.86,1009.0,greater than that of MC3,
CCCCC/C=C\C/C=C\CCCCCCCC(=O)O[C@@H]1[C@@H](OC(=O)CCCCCCC/C=C\C/C=C\CCCCC)CO[C@@H]1COC(=O)CCCN1CCCC1 (racemic) [PNI 539],,,,,effectively elicit an immune response similar to OVA antigen
